Patent US12728186B2, “Methods and kits for preparing pathogen-inactivated whole blood” (priority 2018, dated 2026)
Values joined by “and” are separate entries in the source; they are usually repeats but may differ in a detail not shown here. Equal values may be shown once.

What was measured:
Format in all cases: physicochemical
[1] = Residual unreacted amustaline by LCMS, Example 5 (2-container kits, transfer at 18, 20 or 22 hr); settings: Units 15-21, 2-container kit, transfer time 22 hr, 22° C.
Protocol: A further study was performed to evaluate additional conditions for the preparation of pathogen-inactivated whole blood using amustaline and GSH in 2-container kits of the present disclosure (e.g., FIG. 3b). Amustaline and GSH were added to the whole blood units at 0.2 mM and 2.0 mM final concentrations, respectively, in the first container. […] Following transfer to the second container the mixtures were further incubated at 22° C., with sampling for analysis at 2 hr intervals as shown in Table 6.
Samples were analyzed by LCMS to determine the level of residual, unreacted amustaline as previously described.

[2] = Residual unreacted amustaline by LCMS, Example 6 (treatment in blood collection bags); settings: for Residual amustaline levels in pathogen-inactivated whole blood, 20 hr / Residual amustaline levels in pathogen-inactivated whole blood, 22 hr / Residual amustaline levels in pathogen-inactivated whole blood, 24 hr: 22° C.
Protocol: More specifically, whole blood units were collected from donors and treated in either Teruflex (Terumo, BB*AGD506A2) blood collection bags (Units 2-7) or Leucoflex (MacoPharma, LQE7230LD) blood collection bags (Units 9-14) containing anticoagulant and integrated into a kit of the present disclosure. Six ABO-matched whole blood units were pooled and split into a control unit and six test units of ~450 mL each. Control units 1 and 8 used kits described in previous Examples. A filter set as previously described was sterile docked to the whole blood transfer tubing of the container that had been sealed and severed, followed by addition of amustaline and GSH to final concentrations of about 0.2 mM and 2.0 mM, respectively. GSH was added first, followed by addition of amustaline within 30 minutes. The mixtures were then incubated at 22° C. for 20 hr, with samples taken for analysis and transfer of the mixtures to the second integrally connected container for test Units 2-7 and 9-14, followed by further incubation and sampling at 2 hr intervals (i.e., 22 hr, 24 hr) for all Units as shown in Table 7.

[3] = Residual unreacted amustaline by LCMS, Example 1 (treatment container; samples moved to separate containers); settings: for Residual amustaline levels in pathogen-inactivated whole blood, 21 hr / Residual amustaline levels in pathogen-inactivated whole blood, 24 hr / Residual amustaline levels in pathogen-inactivated whole blood, 27 hr / Residual amustaline levels in pathogen-inactivated whole blood, 30 hr / Residual amustaline levels in pathogen-inactivated whole blood, 33 hr / Residual amustaline levels in pathogen-inactivated whole blood, 36 hr / Residual amustaline levels in pathogen-inactivated whole blood, 42 hr: no transfer, 0.2 mM amustaline, 2.0 mM GSH
Protocol: Pathogen inactivated whole blood was prepared with the pathogen inactivation compound, amustaline, and the quencher glutathione (Henschler et al., 2011, Transfus Med Hemother 38:33-42), in a kit of the present disclosure comprising a treatment container and tubing with a 3-way branch for introducing the amustaline/GSH (e.g., a “filter set”) comprising two in line filters for coupling (e.g., connecting) containers (e.g., syringes) of PIC and quencher, and the third branch coupled to (e.g., connected to) a sample diversion pouch (e.g., FIG. 3b). More specifically, four ABO-matched whole blood units containing anticoagulant were pooled and split into 8 half units (225 mL/half unit), added into each of eight treatment bags by connecting the pooled donor blood bag containing the whole blood to the treatment container by way of the tubing and using a tubing welder. Following transfer of the whole blood into the treatment containers, the pooled donor blood bag was removed by sealing and severing the tubing, and the filter set was sterile coupled using a tubing welder to the same input port of the treatment container via the remaining tubing. Amustaline and GSH were added to final concentrations of 0.2 mM and 2.0 mM, respectively. GSH was added first, followed by addition of amustaline, either within 5 minutes of GSH addition or after at least 15 minutes hold time, as indicated in Table 1. The mixtures were incubated at 22° C. (Units 1-4) or 25° C. (Units 5-8), with samples removed at the indicated times for analysis by liquid chromatography-mass spectrometry (LCMS) to determine the level of residual, unreacted amustaline.
Additionally, 50 mL of the mixture was removed from each of Units 2 and 8 at 24 hr and divided into two 25 mL samples in separate containers to compare storage at 4° C. versus room temperature, and for evaluation of residual amustaline levels at 2, 4, 6 and 8 hours of storage under those conditions (Table 2).

[4] = Unit 1, control unit (kit of previous Examples, not transferred), collection bag T
[5] = Unit 8, control unit (kit of previous Examples, not transferred), collection bag M
[6] = Units 2-7, treated in Teruflex (T) blood collection bag, to second container at 20 hr
[7] = Units 9-14, treated in Leucoflex (M) blood collection bag, to second container at 20 hr
[8] = Units 1-2, amustaline added >15 min after GSH, 22° C. in treatment container
[9] = Units 3-4, amustaline added <5 min after GSH, 22° C. in treatment container
[10] = Units 5-6, amustaline added >15 min after GSH, 25° C. in treatment container
[11] = Units 7-8, amustaline added <5 min after GSH, 25° C. in treatment container

O=C(CCNc1c2ccccc2nc2ccccc12)OCCN(CCCl)CCCl [amustaline]
Residual amustaline levels in pathogen-inactivated whole blood, 24 hr ([1]; 24 hr): BLOQ (BLOQ = Below Limit of Quantitation (e.g., <0.75 nM)) | Residual amustaline levels in pathogen-inactivated whole blood, 26 hr ([1]; 26 hr): BLOQ (BLOQ = Below Limit of Quantitation (e.g., <0.75 nM)) | Residual amustaline levels in pathogen-inactivated whole blood, 20 hr ([2]; 20 hr (at transfer), Units 2-7, treated in Teruflex (T) blood collection bag, to second container at 20 hr): 2.12e-09 M and 2.32e-09 M and 1.29e-09 M and 1.62e-09 M and 1.53e-09 M and 1.92e-09 M | Residual amustaline levels in pathogen-inactivated whole blood, 20 hr ([2]; 20 hr (at transfer), Units 9-14, treated in Leucoflex (M) blood collection bag, to second container at 20 hr): 1.36e-09 M and 1.32e-09 M and 1.44e-09 M and 1.34e-09 M and 1.49e-09 M and 1.4e-09 M | Residual amustaline levels in pathogen-inactivated whole blood, 20 hr ([2]; 20 hr, Unit 1, control unit (kit of previous Examples, not transferred), collection bag T): 2.35e-09 M | Residual amustaline levels in pathogen-inactivated whole blood, 20 hr ([2]; 20 hr, Unit 8, control unit (kit of previous Examples, not transferred), collection bag M): 2.62e-09 M | Residual amustaline levels in pathogen-inactivated whole blood, 22 hr [2, 4]: 1.61 nM | Residual amustaline levels in pathogen-inactivated whole blood, 22 hr [2, 5]: 1.93 nM | Residual amustaline levels in pathogen-inactivated whole blood, 22 hr [2, 6]: BLOQ (BLOQ = Below Limit of Quantitation (e.g., < 0.75 nM)) | Residual amustaline levels in pathogen-inactivated whole blood, 22 hr [2, 7]: BLOQ (BLOQ = Below Limit of Quantitation (e.g., < 0.75 nM)) | Residual amustaline levels in pathogen-inactivated whole blood, 24 hr [2, 4]: 1.81 nM | Residual amustaline levels in pathogen-inactivated whole blood, 24 hr [2, 5]: 1.85 nM | Residual amustaline levels in pathogen-inactivated whole blood, 24 hr [2, 6]: BLOQ (BLOQ = Below Limit of Quantitation (e.g., < 0.75 nM)) | Residual amustaline levels in pathogen-inactivated whole blood, 24 hr [2, 7]: BLOQ (BLOQ = Below Limit of Quantitation (e.g., < 0.75 nM)) | Residual amustaline levels, Units transferred to the second bag at 20 hr ([2]; Units treated in blood collection bags and transferred to the second bag at 20 hr): below the limit of quantitation | Residual amustaline levels in pathogen-inactivated whole blood, 21 hr [3, 8]: 3.50 nM and 4.09 nM | Residual amustaline levels in pathogen-inactivated whole blood, 21 hr [3, 9]: 3.45 nM and 3.85 nM | Residual amustaline levels in pathogen-inactivated whole blood, 21 hr [3, 10]: 2.91 nM and 3.21 nM | Residual amustaline levels in pathogen-inactivated whole blood, 21 hr [3, 11]: 3.43 nM and 4.15 nM | Residual amustaline levels in pathogen-inactivated whole blood, 24 hr [3, 8]: 2.62 nM and 2.66 nM | Residual amustaline levels in pathogen-inactivated whole blood, 24 hr [3, 9]: 3.04 nM and 3.53 nM | Residual amustaline levels in pathogen-inactivated whole blood, 24 hr [3, 10]: 2.44 nM and 2.58 nM | Residual amustaline levels in pathogen-inactivated whole blood, 24 hr [3, 11]: 2.86 nM and 3.39 nM | Residual amustaline levels in pathogen-inactivated whole blood, 27 hr [3, 8]: 2.27 nM and 3.07 nM | Residual amustaline levels in pathogen-inactivated whole blood, 27 hr [3, 9]: 3.29 nM and 3.7 nM | Residual amustaline levels in pathogen-inactivated whole blood, 27 hr [3, 10]: 2.55 nM and 2.71 nM | Residual amustaline levels in pathogen-inactivated whole blood, 27 hr [3, 11]: 2.74 nM and 3.30 nM | Residual amustaline levels in pathogen-inactivated whole blood, 30 hr [3, 8]: 2.11 nM and 2.95 nM | Residual amustaline levels in pathogen-inactivated whole blood, 30 hr [3, 9]: 2.67 nM and 2.84 nM | Residual amustaline levels in pathogen-inactivated whole blood, 30 hr [3, 10]: 2.04 nM and 2.49 nM | Residual amustaline levels in pathogen-inactivated whole blood, 30 hr [3, 11]: 2.34 nM and 2.59 nM | Residual amustaline levels in pathogen-inactivated whole blood, 33 hr [3, 8]: 2.61 nM and 2.29 nM | Residual amustaline levels in pathogen-inactivated whole blood, 33 hr [3, 9]: 2.16 nM and 2.22 nM | Residual amustaline levels in pathogen-inactivated whole blood, 33 hr [3, 10]: 1.76 nM and 1.47 nM | Residual amustaline levels in pathogen-inactivated whole blood, 33 hr [3, 11]: 1.64 nM and 2.83 nM | Residual amustaline levels in pathogen-inactivated whole blood, 36 hr [3, 8]: 1.62 nM and 1.38 nM | Residual amustaline levels in pathogen-inactivated whole blood, 36 hr [3, 9]: 1.73 nM and 1.41 nM | Residual amustaline levels in pathogen-inactivated whole blood, 36 hr [3, 10]: 1.89 nM and 1.87 nM | Residual amustaline levels in pathogen-inactivated whole blood, 36 hr [3, 11]: 2.28 nM and 1.97 nM | Residual amustaline levels in pathogen-inactivated whole blood, 42 hr [3, 8]: 1.30 nM and 1.35 nM | Residual amustaline levels in pathogen-inactivated whole blood, 42 hr [3, 9]: 1.66 nM and 1.57 nM | Residual amustaline levels in pathogen-inactivated whole blood, 42 hr [3, 10]: 1.62 nM and 1.22 nM | Residual amustaline levels in pathogen-inactivated whole blood, 2 hr ([3]; Units 2 and 8, 25 mL sample removed at 24 hr into separate container, stored at RT, 2 hr of storage): BLOQ (BLOQ = Below Limit of Quantitation (e.g., < 0.75 nM)) | Residual amustaline levels in pathogen-inactivated whole blood, 4 hr ([3]; Units 2 and 8, 25 mL sample removed at 24 hr into separate container, stored at RT, 4 hr of storage): BLOQ (BLOQ = Below Limit of Quantitation (e.g., < 0.75 nM)) | Residual amustaline levels in pathogen-inactivated whole blood, 6 hr ([3]; Units 2 and 8, 25 mL sample removed at 24 hr into separate container, stored at RT, 6 hr of storage): BLOQ (BLOQ = Below Limit of Quantitation (e.g., < 0.75 nM)) | residual amustaline after transfer to a different container and storage at room temperature ([3]; treatment mixtures from Units 2 and 8, transfer to a different container, further storage at room temperature): below the limit of quantitation
